Source: article PMC11083148, “Structure–Activity Relationship Studies on Highly Functionalized Pyrazole Hydrazones and Amides as Antiproliferative and Antioxidant Agents” (International Journal of Molecular Sciences, 2024)
Blank lines part the entries; values can stand above or below the compound they belong to.

Legend:
MCF7 = assay: MTT assay, antiproliferative activity; format: cell-based; conditions: 10 µM, 48h; for mean growth percentage (cell growth remaining vs control) at 10 µM: Homo sapiens
Procedure: (§1) Pyrazole acylhydrazones 10–13 and amides 14–22 were tested by MTT assay to evaluate their antiproliferative and cytotoxicity properties against a panel of eight tumor cell lines and normal fibroblasts.
(§2) All reagents were purchased from EuroClone, Milan, Italy). The following cell lines were used for MTT assays: SKOV-3 (ovarian adenocarcinoma, ATCC, Manassas, VA, USA); MCF-7 (breast adenocarcinoma, Biologic Bank and Cell Factory, IRCCS Policlinico San Martino, Genoa, Italy); Hep-G2 (hepatocellular carcinoma, ATCC, Manassas, VA, USA); SK-MEL28 (skin melanoma, Biologic Bank and Cell Factory, IRCCS Policlinico San Martino, Genoa, Italy), GM-6114 (embryonic human fibroblast, ATCC, Manassas, VA, USA); MDA-MB231 (breast adenocarcinoma, Biologic Bank and Cell Factory, IRCCS Policlinico San Martino, Genoa, Italy); HeLa (cervical adenocarcinoma, Biologic Bank and Cell Factory, IRCCS Policlinico San Martino, Genoa, Italy); SK-BR3 (breast andenocarcinoma, Biologic Bank and Cell Factory, IRCCS Policlinico San Martino, Genoa, Italy); A549 (lung carcinoma, Biologic Bank and Cell Factory, IRCCS Policlinico San Martino, Genoa, Italy); HUVEC (Human Umbilical Vein Endothelial Cells, ATCC, Manassas, VA, USA). All cell lines were grown in their medium with 10% FBS, 2 mM Glutamine, and 1% penstrep and incubated at 37 °C in 5% CO2 in a humidified environment. The cell lines were plated in 96-well plates at an adequate number to reach 80–90% confluence at the end of the assay. 16 h after cell plating, a 10 mM DMSO stock solution of the compounds was diluted in growth medium and added at a final working concentration of 10 μM. After 48h of incubation, a 2 mg/mL PBS solution of MTT (3-(4,5-dimethyl-2-thiazolyl)-2,5-diphenyl-2H-tetrazolium bromide) was added (30 μL/well). After 4h, the supernatant was removed, and the Formazan precipitates were dissolved in DMSO (100 μL/well). The 96-well plates were incubated for 20 min, and absorbance was measured at 570 nm using a plate reader. The results are expressed as a percentage ratio over control samples (100%) in which the cells were incubated with the same amount of DMSO but without compounds. Each value is the mean of three independent experiments run in six replicates.
(§3) Each IC50 value is the mean of three independent experiments run in duplicate.

SKMEL28 = assay: MTT assay, antiproliferative activity; format: cell-based; conditions: 48h; for Mean growth percentage at 10 µM: Homo sapiens, SK-MEL-28, 10 µM
Procedure: as §1, §2, §3

SKOV3 = assay: MTT assay, antiproliferative activity; format: cell-based; conditions: 48h; for Mean growth percentage at 10 µM: Homo sapiens, SK-OV-3, 10 µM
Procedure: as §1, §2, §3

HeLa = assay: MTT assay, antiproliferative activity; format: cell-based; conditions: 10 µM, 48h; for activity at 10 µM: Homo sapiens, read-out: Mean Growth Percentage
Procedure: as §1, §2, §3

GM-6114 = assay: MTT assay, cytotoxicity on normal fibroblasts; format: cell-based; conditions: human, 48 h, 10 µM
washed platelets [1] = assay: Platelet aggregation (thrombin-induced, Born's method); format: cell-based; conditions: Homo sapiens, 0.1 U/mL thrombin, mean ± SD, read-out: IC50 Aggregation inhibition
Procedure: (§4) The antioxidant properties of acylhydrazones 10–13 and pyrazolyl amides 14–22 were tested by evaluating their inhibition of platelet aggregation and ROS production (Figure 3, Table S1). In fact, human platelets could represent a fast and low-cost biological model to screen compounds as anticancer, anti-inflammatory, and antiaggregating agents. Moreover, ROS production inhibition, related to human platelet aggregation, could provide a good indication of the anti-inflammatory and antioxidant properties of the newly synthesized compounds [47, 50, 51, 52]. N-acetylcysteine (NAC) and acetyl salicylic acid (ASA) were used as reference drugs for antioxidant and antiaggregant activities, respectively.
(§5) Freshly drawn venous blood from healthy volunteers from “Centro Trasfusionale” (IRCCS Policlinico San Martino, Genoa, Italy) was collected into a 130 mM aqueous trisodium citrate anticoagulant solution (9:1). The donors claimed to not have taken drugs known to interfere with platelet function during the two weeks prior to blood collection and gave their informed consent. Whole blood was centrifuged at 100× g for 20 min to afford platelet-rich plasma that was then spun at 1100× g for 15 min. The obtained pellet was washed once with a pH 5.2 ACD solution (75 mM trisodium citrate, 42 mM citric acid, and 136 mM glucose), centrifuged at 1100× g for 15 min, and then re-suspended in pH 7.4 Hepes buffer (145 mM NaCl, 5 mM KCl, 1 mM MgSO4, 10 mM glucose, and 10 mM HEPES).
Thrombin was purchased from Sigma-Aldrich/Merck Millipore. A DMSO solution of compounds 10–22 was diluted in saline immediately before each experiment and added to the washed platelets (3.0 × 10^8/mL) at 37 °C. After 3 min, 0.1 U/mL thrombin was added, and platelet aggregation was quantified according to Born’s method using a Bio-Data Aggregometer (Bio-Data Corporation, Horsham, PA, USA). The IC50 values were calculated as detailed above.

A549 = assay: MTT assay, antiproliferative activity; format: cell-based; conditions: 48h; for activity at 10 µM: Homo sapiens, read-out: Mean Growth Percentage
Procedure: as §1, §2

SK-BR3 = assay: MTT assay, antiproliferative activity; format: cell-based; conditions: for Mean growth percentage at 10 µM: Homo sapiens, SK-BR-3, 48h
Procedure: as §1, §2

MDA-MB231 = assay: MTT assay, antiproliferative activity; format: cell-based; conditions: for Mean growth percentage at 10 µM: Homo sapiens, MDA-MB-231, 48h
Procedure: as §1, §2

Hep-G2 = assay: MTT assay, antiproliferative activity; format: cell-based; conditions: for Mean growth percentage at 10 µM: Homo sapiens, HepG2, 48h
Procedure: as §1, §2

washed platelets [2] = assay: ROS assay in platelets (DCFH-DA, thrombin-stimulated); format: cell-based, human; conditions: 0.1 U/mL thrombin, mean ± SD, read-out: IC50 ROS production inhibition
Procedure: as §4, §5
2′,7′-Dichlorofluorescein diacetate (DCFH-DA) and thrombin were purchased from Sigma-Aldrich/Merck Millipore. DMSO solutions of 10–22 were diluted in saline immediately before each experiment. ROS production was quantified by DCFH-DA, a ROS-sensitive probe that yields, upon oxidation, the fluorescent adduct DCF that is trapped inside the cells. Briefly, washed platelets (1.0 × 10^8/mL), pre-incubated with saline solutions of 10–22 for 15 min at 37 °C, were stimulated by 0.1 U/mL thrombin. Incubation was stopped by cooling samples in an ice bath, and then samples were immediately analyzed in a Merck Millipore Bioscience Guava easyCyte flow cytometer (Merk Millipore, Burlington, MA, USA). The reported IC50 values represent the molar concentration of the compounds able to inhibit 50% of the maximal aggregation induced by the agonist and are calculated as the percentage inhibition of the maximal aggregation measured in the presence of the agent compared with the measure in a control sample containing saline, carried out under the same conditions. The IC50 values were extrapolated from nonlinear regression analysis of concentration–response curves (three points) using MS Excel software (Microsoft 365 suite). Each IC50 value is the mean of six independent experiments.

- IC50 (washed platelets [1]): 129 ± 10 µM
- IC50 (washed platelets [2]; Homo sapiens, Platelet): 113 ± 7 µM
SMILES: COc1ccc(/C=N/NC(=O)c2c(N)nn(C)c2Nc2ccccc2)cc1OC [11b, (E)-3-amino-N′-(3,4-dimethoxybenzylidene)-1-methyl-5-(phenylamino)-1H-pyrazole-4-carbohydrazide]
- mean growth percentage (cell growth remaining vs control) at 10 µM (MCF7): 94.8%
- Mean growth percentage at 10 µM (SKMEL28): 93%
- Mean growth percentage at 10 µM (SKOV3): 100%
- activity at 10 µM (HeLa): 99.5%
- Mean Growth Percentage (GM-6114): 104.95%
- activity at 10 µM (A549): 94.8%
- Mean growth percentage at 10 µM (SK-BR3): 86%
- Mean growth percentage at 10 µM (MDA-MB231): 85.7%
- Mean growth percentage at 10 µM (Hep-G2): 116%

- IC50 (washed platelets [1]): 841 ± 43 µM
- IC50 (washed platelets [2]; Homo sapiens, Platelet): 148 ± 13 µM
SMILES: COc1ccc(/C=N/NC(=O)c2c(N)nn(C)c2Nc2ccccc2)cc1Oc1ccccc1 [11c, (E)-3-amino-N′-(4-methoxy-3-phenoxybenzylidene)-1-methyl-5-(phenylamino)-1H-pyrazole-4-carbohydrazide]
- mean growth percentage (cell growth remaining vs control) at 10 µM (MCF7): 84.5%
- Mean growth percentage at 10 µM (SKMEL28): 87.6%
- Mean growth percentage at 10 µM (SKOV3): 110%
- activity at 10 µM (HeLa): 101%
- Mean Growth Percentage (GM-6114): 105.27%
- activity at 10 µM (A549): 91.7%
- Mean growth percentage at 10 µM (SK-BR3): 83.1%
- Mean growth percentage at 10 µM (MDA-MB231): 93.4%
- Mean growth percentage at 10 µM (Hep-G2): 113%

- IC50 (washed platelets [1]): 265 ± 23 µM
- IC50 (washed platelets [2]; Homo sapiens, Platelet): 113 ± 7 µM
SMILES: COc1ccc(/C=N/NC(=O)c2c(Nc3ccccc3)nn(C)c2N)cc1 [12a, (E)-5-amino-N′-(4-methoxybenzylidene)-1-methyl-3-(phenylamino)-1H-pyrazole-4-carbohydrazide]
- mean growth percentage (cell growth remaining vs control) at 10 µM (MCF7): 88.5%
- Mean growth percentage at 10 µM (SKMEL28): 76.2%
- Mean growth percentage at 10 µM (SKOV3): 102%
- activity at 10 µM (HeLa): 94.8%
- Mean Growth Percentage (GM-6114): 100.38%
- activity at 10 µM (A549): 97.1%
- Mean growth percentage at 10 µM (SK-BR3): 95%
- Mean growth percentage at 10 µM (MDA-MB231): 97.9%
- Mean growth percentage at 10 µM (Hep-G2): 111%

- IC50 (washed platelets [1]): 331 ± 14 µM
- IC50 (washed platelets [2]; Homo sapiens, Platelet): 193 ± 16 µM
SMILES: COc1ccc(/C=N/NC(=O)c2c(Nc3ccccc3)nn(C)c2N)cc1Oc1ccccc1 [12c, (E)-5-amino-N′-(4-methoxy-3-phenoxybenzylidene)-1-methyl-3-(phenylamino)-1H-pyrazole-4-carbohydrazide]
- mean growth percentage (cell growth remaining vs control) at 10 µM (MCF7): 88.3%
- Mean growth percentage at 10 µM (SKMEL28): 94.6%
- Mean growth percentage at 10 µM (SKOV3): 104%
- activity at 10 µM (HeLa): 85.2%
- Mean Growth Percentage (GM-6114): 104.08%
- activity at 10 µM (A549): 98.5%
- Mean growth percentage at 10 µM (SK-BR3): 82.1%
- Mean growth percentage at 10 µM (MDA-MB231): 100%
- Mean growth percentage at 10 µM (Hep-G2): 111%

- IC50 (washed platelets [1]): 883 ± 39 µM
- IC50 (washed platelets [2]; Homo sapiens, Platelet): 213 ± 17 µM
SMILES: COc1ccc(/C=N/NC(=O)c2c(Nc3ccccc3)nn(CC(O)c3ccccc3)c2N)cc1 (centres unmarked) [13a, (E)-5-amino-1-(2-hydroxy-2-phenylethyl)-N′-(4-methoxybenzylidene)-3-(phenylamino)-1H-pyrazole-4-carbohydrazide]
- mean growth percentage (cell growth remaining vs control) at 10 µM (MCF7): 81%
- Mean growth percentage at 10 µM (SKMEL28): 81.8%
- Mean growth percentage at 10 µM (SKOV3): 93.8%
- activity at 10 µM (HeLa): 83.7%
- Mean Growth Percentage (GM-6114): 99.43%
- activity at 10 µM (A549): 94.5%
- Mean growth percentage at 10 µM (SK-BR3): 91.8%
- Mean growth percentage at 10 µM (MDA-MB231): 96.4%
- Mean growth percentage at 10 µM (Hep-G2): 85.9%

- IC50 (washed platelets [1]): 438 µM
SMILES: CC(=O)Oc1ccccc1C(=O)O [ASA, acetyl salicylic acid, reference compound]

SMILES: N.N.[Cl][Pt][Cl] [CisPt, cisplatin, reference compound]
- Mean Growth Percentage (MCF7): 72.74%
- Mean Growth Percentage (SKMEL28; 10 µM): 44.40%
- Mean Growth Percentage (SKOV3; 10 µM): 36.83%
- Mean Growth Percentage (HeLa): 29.33%
- Mean Growth Percentage (A549; 10 µM): 59.09%
- Mean Growth Percentage (SK-BR3; 10 µM, 48h): 70.59%
- Mean Growth Percentage (MDA-MB231; 10 µM, 48h): 86.07%
- Mean Growth Percentage (Hep-G2; 10 µM, 48h): 38.07%

- IC50 (washed platelets [2]): 872 µM
SMILES: CC(=O)N[C@@H](CS)C(=O)O [NAC, N-acetylcysteine, reference compound]
